{
  "source": "patent US6348445B1",
  "about": "“Biologically active peptides with reduced toxicity in animals and a method for preparing same” (priority 1992, dated 2002)",
  "key": {"[1]": {"tested_on": "P. aeruginosa strain ATCC 27853", "assay_type": "cell-based", "settings": "ATCC 27853", "method_in_brief": "(§1)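 Broth microdilution per NCCLS M7-T2: final peptide levels 0.25 to 256 μg/ml (twofold steps), inoculum 1-5×10^5 CFUs/ml in full-strength Mueller Hinton broth. MIC read as lowest concentration leaving the well clear after 16-20 hours at 37° C.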"}, "[2]": {"test": "MTD of repeat-dose intraperitoneal administration", "assay_type": "in vivo, SCID mice", "settings": "for MTD at 504 h: male, SCID (Fox Chase C.B-17/IcrTac-scidfDF), mouse, in vivo, ip", "experimental": "Determinations of a maximal tolerated dose (MTD) of repeat-dose intraperitoneal (i.p.) administration of MSI-344 or MSI-1857 in 60 SCID mice were done. Mice were injected with various doses of MSI-344 or MSI-1857 twice or thrice per week. Survival and body weight were monitored. On a twice per week dosing schedule, the MTDs of MSI-344 and MSI-1857 were 12 and 134 mg/kg/week, respectively. […] On a thrice per week dosing schedule, no deaths occurred in any groups, with high dose groups of MSI-344 and MSI-1857 receiving 90 mg/kg/week and […], respectively. A transient body weight loss was seen after initial dosing in most MSI-344 and MSI-1857 groups. No body weight loss greater than 6% occurred in any group on the thrice per week dosing schedule.\nTo determine estimates of MTDs of MSI-344 and MSI-1857 when administered intraperitoneally on repeat-dose regimens in SCID mice. The selection of SCID mice was based on the future plans of using this strain as host for xenograft human tumor efficacy models, and a pre-requisite for determining MTD for chronic administration that may be used during the efficacy model.\nSCID mice are immunocompromised and therefore they were housed and handled in sterile environments. They had access to sterile water and sterilized chow ad lib.\nA 1 mg/mL solution of MSI-344 was made in saline (0.9% sodium chloride injection USP, Abbott, North Chicago, Ill.) corrected for peptide content. Solutions of MSI-344 at concentrations of 0.6, 0.3, and 0.1 mg/mL were made by diluting the 1 mg/mL solution using saline as diluent. A 10 mg/mL solution of MSI-1857 was made in saline.\nSolutions of MSI-1857 at concentrations of 6.7, 3.3, 3, 2, and 1 mg/mL were made by diluting the 10 mg/mL solution using saline as diluent.\nMice (four mice per dose group) were intraperitoneally administered MSI-344 or MSI-1857 using an injection volume of 10 mL/kg of the appropriate solution concentration on a twice per week (Groups 1 through 7) or thrice per week (Groups 8 through 15) dosing schedule every week for 20 weeks. Survival was monitored daily and body weights were recorded three times per week An interim analysis was performed at 3 weeks and the results of this interim analysis is presented in the present report."}, "[3]": {"tested_on": "E. coli ATCC strain 25922", "test": "Minimal Inhibitory Concentration, microtiter broth dilution", "assay_type": "cell-based", "settings": "ATCC strain 25922", "method_in_brief": "as §1"}},
  "note": "Where two headings read alike, the source gives them in different places. Where no end group is shown, it is not given here.",
  "data": [
    {"sequence": "GIGKFLKKAKKFGKAFVKILKK [MSI-344]", "values": [
      {"measurement": "MIC P. aeruginosa ATCC 27853", "setting": "[1]", "result": 16, "unit": "µg/mL"},
      {"measurement": "effect of initial dosings on body weight", "setting": "[2]; all surviving groups except the low dose group on the thrice-per-week schedule", "result": "dose-dependent transient body weight loss"},
      {"measurement": "MTD, thrice per week dosing schedule", "setting": "[2]; i.p., SCID mice, interim analysis at 3 weeks", "result": "greater than or equal to 18 mg/kg/week"},
      {"measurement": "MTD at 504 h", "setting": "[2]; SCID mice, interim analysis at 3 weeks, read-out: MTD, thrice per week dosing schedule", "result": "≥ 2.57", "unit": "mg/kg/day"},
      {"measurement": "MTD at 504 h", "setting": "[2]; SCID mice, interim analysis at 3 weeks, read-out: MTD, twice per week dosing schedule (converted)", "result": 1.71, "unit": "mg/kg/day"},
      {"measurement": "MIC E. coli ATCC 25922", "setting": "[3]", "result": 8, "unit": "µg/mL"}
    ]}
  ]
}
